Read-outs that look alike come from different tables or passages of the source.

In series [1] the test system is Neuraminidase transfected HEK 293 cells.
The nature of a further series: in vitro. Particulars: human.
Series [2] has as its system influenza virus A/Puerto Rico/8/1934 (H1N1). The format is in vivo, BALB/c mice. Particulars: DNP-KLH immunized mice, 1.5 μmol/kg intranasally one time a day for five days, 100 LD50.
In series [3] the test system is 293NA cells (HEK 293 cells that express NA). The format is cell-based.
Series [4] relates to A/Aichi/2/1968 (HA, NA), x-31b (H3N2) virus. Also on record: species or system mice. Particulars: mouse, in vivo.
The next series concerns A/Puerto Rico/8/34. Also on record: species or system mice. Particulars: mouse, in vivo, ip.
For series [5], the system named is A/Aichi/2/1968 (HA, NA), x-31b (H3N2) virus. Also on record: species or system mice. Particulars: mouse, in vivo, ip.
The test system of series [6] is Neuraminidase transfected HEK 293 cells. Type of series: binding.

For `CCCC(=O)OCN(C(=O)[C@@H](NC(=O)[C@H]1CCCCN1C)C(C)CC)[C@H](C[C@@H](OC(C)=O)c1nc(C(=O)N[C@@H](Cc2ccc(O)cc2)C[C@H](C)C(=O)NNC(=O)OCCSSC[C@H](NC(=O)[C@H](CC(=O)O)NC(=O)[C@@H](N)CNC(=O)CCC(=O)N2Cc3ccccc3-c3c(nnn3CCOCCOCCOCCNC(=O)O[C@@H]([C@@H]3OC(C(=O)O)=C[C@H](NC(=N)N)[C@H]3NC(C)=O)[C@H](O)CO)-c3ccccc32)C(=O)O)cs1)C(C)C` (stereo partly drawn), the “reduction of cytotoxicity by blocking neuraminidase binding sites” value in series [1] is reported as over 30 fold. Moreover, in “in vitro”, the EC50 (as a rule, the concentration that produces a half-maximal response) turned out to be 5.2 nM.

In the case of `CC(=O)N[C@H]1[C@H]([C@H](O)[C@H](O)CO)OC(C(=O)O)=C[C@@H]1N=C(N)N` [zanamivir], the “survival (protection from lethal virus challenge)” value in series [2] was determined as 60%. Moreover, the “% of killing (LDH)” value in series [3] is reported as “no killing”. Moreover, the “protection 14 days post infection” value (in series [4]; in the series with A/Puerto Rico/8/34; in series [5]) was “does not provide the same protection” each time. In series [6], the Kd (in general, the free concentration of one partner at which half of the binding sites on the other are occupied at equilibrium, for simple one-to-one binding) is about 0.77 nM.

Turning to Tubulysin B hydrazide, the response in series [1] was half-maximal at 9.9 nM (EC50).
